In US5132304A, “Benzothiazine derivatives and their applications as medicinal products or as synthesis intermediates for medicinal products” (Laboratorios Del Dr. Esteve, S. A., priority 1989, dated 1992):

System: carrageenan-induced oedema in Wistar rats
Assay: Inhibition of carrageenan-induced oedema in Wistar rats 3 hours after oral administration
Assay type: in vivo
Conditions: p.o.; for Oedema inhibition: N=10, 3 hours after administration; for ED50: Rattus norvegicus, calculated from results 3 hours after oral administration, 2 hours after carrageenan
Protocol: (Inhibition of carrageenan-induced oedema)
The method followed was that described by Winter et al. (Proc. Soc. Exp. Biol. Med. […]; 111; 544-547).
Inhibition of carrageenan-induced oedema in Wistar rats 3 hours after administration of the product: […]

Structure (SMILES)	Oedema inhibition (2.5 mg/kg)	Oedema inhibition (5 mg/kg)	Oedema inhibition (10 mg/kg)	Oedema inhibition (40 mg/kg)	ED50	Oedema inhibition (12.5 mg/kg)	Oedema inhibition (25 mg/kg)
CCOC(=O)OC1=C(C(=O)N(C(=O)OCC)c2ccccn2)N(C)S(=O)(=O)c2ccccc21 [Example 1, N-ethoxycarbonyl-N-(2-pyridyl)-4-ethoxy-carbonyloxy-2-methyl-2H-1,2-benzothiazine-3-carboxamide 1,1-dioxide]	33.8%	54.3%	63.8%	65.5%	5.6 mg/kg	–	–
CCCCC1C(=O)N(c2ccccc2)N(c2ccccc2)C1=O [Phenylbutazone, phenylbutazone, reference compound]	–	–	–	–	19.6 mg/kg	46.6%	52.1%
